The values that follow come from patent US10363239B2, “Method for inhibiting growth of cancer cells” (Pain Therapeutics, Inc., priority 2013, dated 2019).

The test system of experiment [1] is non-small cell lung cancer cell lines. Nature of the experiment: Glucose utilization. It is filed as cell-based, human. The settings on record: data not shown. As for the experimental part:
(§1) To determine the effect of Compound C0105 on glucose utilization, the cancer and primary normal cells were plated extremely thinly (10%). Once cells attached, Compound C0105 was added at 0.1, 0.5, 1 or 5 nM in the medium twice daily (6 hours apart) for 4 days. The cells were serum-deprived (glucose deprived) for 2 hours. Cells were then rinsed with 1 ml PBS and glucose uptake was assessed by contacting the cells with [^3H]glucose (0.01 uCi/l ml) in Kreb's Ringer for 2 hours. Cells were then rinsed with 1 ml PBS 3 times, scraped off and their glucose content counted by liquid scintillation spectrophotometry.
. Primary lung fibroblast cells were used as control, non-cancerous cells to illustrate the difference in effects observed (FIG. 1C, FIGS. 1H-1I).

The test system of experiment [2] is MiaPaCa2 cells. As to the kind of experiment: Cell proliferation by cell-cycling markers Ki67 and PCNA (Western blots). It is filed as cell-based, human. The settings on record: 0.1-5 nM; 4 days. The method, then:
The effect of contact with Compound C0105 on cell proliferation was determined by the levels of cell-cycling markers Ki67 and PCNA using Western blots. Cells treated with vehicle and 0.1-5 nM C0105 for 4 days were collected, washed and solubilized (lysed). The resultant cell lysates were size-fractionated on SDS-PAGE and Western blotting to determine the levels of Ki67, PCNA and actin (loading control). The protein bands were quantified using densitometric scanning. […] N=4. *p<0.01 compared to vehicle (open bars).
To study the effect of Compound C0105 on PI3K activity, the cancer and primary normal cells were cultured to approximately 60-70% confluency, serum deprived for 4 hours, briefly washed with PBS and treated with vehicle or 0.1, 0.5, 1 or 5 nM Compound C0105 for 24 hours with in 0.1% FBS-containing culture medium. […] The cell pellets were sonicated in ice-cold immunoprecipitation buffer and protein concentrations measured by the Bradford method. […]
Immunoreactivity was visualized by reaction in ECL Plus chemiluminescent reagent for exactly 5 minutes, followed by immediate exposure of the blot to X-ray film (Z & Z Medical). Bands at the relevant molecular masses of Ki67 and PCNA were quantified by densitometric scan. Membranes were stripped, washed 5× in 0.1% PBST (2 minutes each) and the actin content analyzed by immunoblotting using monoclonal anti-actin to illustrate even loading.

The subject of experiment [3] is human mammalian epithelial cells (HMEC). Nature of the experiment: [3H]glucose uptake. It is filed as cell-based. The settings on record: 0.1-5 nM; 4 days. As for the experimental part:
as §1, with “FIG. 1A through FIG. 1M illustrate the effects of various FLNA-binding compounds on glucose uptake in glioblastoma, melanoma, breast and pancreatic cancer cell lines, along with appropriate non-cancerous primary cell controls. Cells were grown in the absence or presence of 0.1-5 nM indicated compounds for 4 days. Following brief washes with PBS, cells were serum-deprived for 4 hours and then incubated in oxygenated Kreb's Ringer containing 0.1 μCi [^3H]glucose for 2 hours under constant oxygenation. The reaction was terminated by removal of the incubation medium, and cells were washed and scraped off to determine the amounts of [^3H]glucose in cells by scintillation spectrometry. […] N=5-6. […] . […] . To” for “To”

Experiment [4] deals with primary human pancreatic epithelial cells. Nature of the experiment: [3H]glucose uptake. Particulars: 0.1-5 nM; 4 days. It is filed as cell-based. As for the experimental part:
as §1, with “FIG. 1A through FIG. 1M illustrate the effects of various FLNA-binding compounds on glucose uptake in glioblastoma, melanoma, breast and pancreatic cancer cell lines, along with appropriate non-cancerous primary cell controls. Cells were grown in the absence or presence of 0.1-5 nM indicated compounds for 4 days. Following brief washes with PBS, cells were serum-deprived for 4 hours and then incubated in oxygenated Kreb's Ringer containing 0.1 μCi [^3H]glucose for 2 hours under constant oxygenation. The reaction was terminated by removal of the incubation medium, and cells were washed and scraped off to determine the amounts of [^3H]glucose in cells by scintillation spectrometry. […] N=5-6. […] . […] . To” for “To”

Experiment [5] concerns more than 65 receptors. Nature of the experiment: Standard binding assay on more than 65 receptors. Particulars: 10 μM concentration.
Experiment [6] has as its system FLNA-bound K-ras and ras-GAP in lung fibroblasts. As to the kind of experiment: FLNA-bound K-ras and ras-GAP (immunoprecipitation, Western blotting). It is filed as cell-based, human. As for the experimental part: Thus, melanoma, two different pancreatic cancerous cell lines (MiaPaCa2 and BxPc3) and a glioblastoma cell line (U87) were treated with zero (vehicle), 0.1, 0.5, 1 and 5 nM Compound C0105 as previously discussed, and FLNA-bound K-ras and ras-GAP were immunoprecipitated, separated by Western blotting and the blot densities determined as discussed previously.
To study the effect of Compound C0105 on pS^2152FLNA levels, FLNA linkages to key regulators including protein phosphatases as well as activated Akt (pS^473-, pT^308-Akt), mTOR (pS^2442mTOR) and ERK (pY/pT-ERK) levels, the cancer and normal cells were cultured to approximately 90% confluency and treated with vehicle or varying concentrations of Compound C0105. […]
The cell lysates were diluted 5-fold with immunoprecipitation buffer and immunoprecipitated with anti-FLNA, -Akt, -mTOR and -ERK2 as described previously [Talbot et al., J Clin Inv 122(4):1-23 (2012); Wang et al., J Neurosci 32(29):9773-9784 (2012)]. The levels of FLNA linkages, activated phosphorylated Akt (pS^473 and pT^308), phosphorylated mTOR (pS^2448) and phosphorylated ERK2 (pY/pT) were determined in anti-FLNA, -Akt, -mTOR and -ERK2 immunoprecipitates by Western blotting with appropriate antibodies directed against PTEN, PP2A, K-RAS, ras-GAP (FLNA linkages), pS^473Akt, pT^308Akt, pS^2448mTOR and pY/pT ERK2 (activation of Akt, mTOR and ERK2). […]
(A western blot detects proteins with antibodies after separation by electrophoresis.)

Molecules are shown by their SMILES.

Take `CN1CCC2(CC1)NCC(=O)N2Cc1ccccc1` [Compound C0105]: in experiment [1], the Glucose utilization entry is “decreased the elevated glucose utilization”. The “Cell proliferation (Ki67 and PCNA levels)” value in experiment [2] is “reduces cell proliferation”. In addition, the Basal glucose uptake result was “no change” in experiment [3] and “no effect” in experiment [4]. Besides, the “Binding to any of more than 65 assayed receptors” value in experiment [5] was “no significant binding”. For the same molecule, the “FLNA-associated K-ras and ras-GAP” value in experiment [6] is listed as “had no effect on fibroblasts”.
